Experimental findings from patent US20210255193A1, “LYSINE REACTIVE PROBES AND USES THEREOF” (The Scripps Research Institute, priority 2017, published 2021) are described below.

What all share (test): competitive isoTOP-ABPP
What all share (format): binding

The target of assay [1] is T1, G6PD Glucose-6-phosphate 1-dehydrogenase (Homo sapiens, UniProt P11413).
T1 construct: isoTOP-ABPP experiments performed in cell lysates (in vitro); endogenous in cells; host or cells: MDA-MB-231 soluble lysate
T1 sequence (P11413 whole entry): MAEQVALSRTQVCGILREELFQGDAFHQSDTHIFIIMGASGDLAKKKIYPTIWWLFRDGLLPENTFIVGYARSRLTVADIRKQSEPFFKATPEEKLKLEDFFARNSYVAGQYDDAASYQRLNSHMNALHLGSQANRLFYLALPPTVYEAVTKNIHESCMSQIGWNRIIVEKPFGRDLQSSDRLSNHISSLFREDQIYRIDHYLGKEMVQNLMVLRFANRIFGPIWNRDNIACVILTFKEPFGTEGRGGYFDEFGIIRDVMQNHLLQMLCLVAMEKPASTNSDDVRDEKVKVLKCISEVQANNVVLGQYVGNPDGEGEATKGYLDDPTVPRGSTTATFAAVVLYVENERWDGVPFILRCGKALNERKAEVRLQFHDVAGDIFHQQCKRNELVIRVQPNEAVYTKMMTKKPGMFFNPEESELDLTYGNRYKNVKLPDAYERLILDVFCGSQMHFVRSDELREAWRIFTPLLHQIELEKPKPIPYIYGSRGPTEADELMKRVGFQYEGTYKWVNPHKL
The conditions noted are these: 50 uM, 231 sol, in vitro; for R value (DMSO/fragment) for probe 1 labeling: P11413_K171. The method in brief:
(§1)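 Lysate + fragment (50 μM activated ester / 100 μM guanidinylating agent) or DMSO → 0.1 mM STP-alkyne, 1 h, RT → CuAAC to TEV tags (compound light, DMSO heavy) → LC-MS. R = heavy/light MS1 area; liganded lysine if R≥4.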

Assay [2] concerns the target T2, GLOD4 Glyoxalase domain-containing protein 4 (Homo sapiens, UniProt Q9HC38).
T2 construct: endogenous in cells; host or cells: MDA-MB-231 (soluble fraction of lysate)
T2 sequence (Q9HC38 1-313): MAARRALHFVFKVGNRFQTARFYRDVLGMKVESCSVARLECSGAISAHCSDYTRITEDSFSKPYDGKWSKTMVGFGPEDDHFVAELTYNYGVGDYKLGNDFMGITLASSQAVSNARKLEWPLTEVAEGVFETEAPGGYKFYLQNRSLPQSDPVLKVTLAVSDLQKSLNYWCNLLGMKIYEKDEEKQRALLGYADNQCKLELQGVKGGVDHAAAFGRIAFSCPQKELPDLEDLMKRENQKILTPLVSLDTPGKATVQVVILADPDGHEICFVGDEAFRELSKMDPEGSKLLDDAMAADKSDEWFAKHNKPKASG
To be noted: 50 uM, 231 sol, in vitro; for R value (DMSO/fragment) for probe 1 labeling: Q9HC38_K305. The method in brief: as §1

Assay [3] concerns the target T3, GLUD1 Glutamate dehydrogenase 1, mitochondrial (Homo sapiens, UniProt P00367).
T3 construct: isoTOP-ABPP experiments performed in cell lysates (in vitro); endogenous in cells; host or cells: MDA-MB-231 soluble lysate
The conditions noted are these: 50 uM, 231 sol, in vitro; for R value (DMSO/fragment) for probe 1 labeling: P00367_K480. In outline:
as §1

Assay [4] concerns the target T4, GOLGB1 Golgin subfamily B member 1 (Homo sapiens, UniProt Q14789).
T4 construct: isoTOP-ABPP experiments performed in cell lysates (in vitro); endogenous in cells; host or cells: soluble proteome of human cancer cell lines (MDA-MB-231, Ramos, Jurkat)
The conditions noted are these: 50 uM, 231 sol, in vitro; for R value (DMSO/fragment) for probe 1 labeling: Q14789_K103. The method in brief:
as §1

For assay [5], the target named is T5, POLR2L DNA-directed RNA polymerases I, II, and III subunit (Homo sapiens, UniProt P62875).
T5 construct: isoTOP-ABPP experiments performed in cell lysates (in vitro); endogenous in cells; host or cells: soluble proteome of human cancer cell lines (MDA-MB-231, Ramos, Jurkat)
The conditions noted are these: 50 uM, 231 sol, in vitro; for R value (DMSO/fragment) for probe 1 labeling: P62875_K67. In outline: as §1

The target of assay [6] is T6, XRCC6 X-ray repair cross-complementing protein 6 (Homo sapiens, UniProt P12956).
T6 construct: isoTOP-ABPP experiments performed in cell lysates (in vitro); endogenous in cells; host or cells: soluble proteome of human cancer cell lines (MDA-MB-231; Ramos and Jurkat also prepared)
T6 sequence (P12956 2-609 limits assumed): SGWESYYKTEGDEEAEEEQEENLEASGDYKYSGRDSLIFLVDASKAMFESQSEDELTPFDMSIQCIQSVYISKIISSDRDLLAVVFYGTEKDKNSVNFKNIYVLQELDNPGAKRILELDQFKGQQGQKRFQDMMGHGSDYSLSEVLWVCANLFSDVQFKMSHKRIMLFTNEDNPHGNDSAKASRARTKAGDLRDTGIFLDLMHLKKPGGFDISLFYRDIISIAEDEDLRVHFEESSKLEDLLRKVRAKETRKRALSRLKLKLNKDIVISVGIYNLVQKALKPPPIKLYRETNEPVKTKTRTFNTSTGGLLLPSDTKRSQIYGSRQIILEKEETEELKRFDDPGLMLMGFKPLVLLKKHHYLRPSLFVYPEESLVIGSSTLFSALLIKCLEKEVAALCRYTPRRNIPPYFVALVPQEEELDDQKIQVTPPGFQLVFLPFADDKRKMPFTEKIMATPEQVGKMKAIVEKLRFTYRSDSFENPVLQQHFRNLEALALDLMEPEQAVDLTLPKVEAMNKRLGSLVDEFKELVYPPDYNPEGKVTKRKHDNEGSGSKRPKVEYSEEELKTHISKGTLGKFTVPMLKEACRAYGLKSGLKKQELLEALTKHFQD
T6 sequence (P13010 2-732 partner limits assumed): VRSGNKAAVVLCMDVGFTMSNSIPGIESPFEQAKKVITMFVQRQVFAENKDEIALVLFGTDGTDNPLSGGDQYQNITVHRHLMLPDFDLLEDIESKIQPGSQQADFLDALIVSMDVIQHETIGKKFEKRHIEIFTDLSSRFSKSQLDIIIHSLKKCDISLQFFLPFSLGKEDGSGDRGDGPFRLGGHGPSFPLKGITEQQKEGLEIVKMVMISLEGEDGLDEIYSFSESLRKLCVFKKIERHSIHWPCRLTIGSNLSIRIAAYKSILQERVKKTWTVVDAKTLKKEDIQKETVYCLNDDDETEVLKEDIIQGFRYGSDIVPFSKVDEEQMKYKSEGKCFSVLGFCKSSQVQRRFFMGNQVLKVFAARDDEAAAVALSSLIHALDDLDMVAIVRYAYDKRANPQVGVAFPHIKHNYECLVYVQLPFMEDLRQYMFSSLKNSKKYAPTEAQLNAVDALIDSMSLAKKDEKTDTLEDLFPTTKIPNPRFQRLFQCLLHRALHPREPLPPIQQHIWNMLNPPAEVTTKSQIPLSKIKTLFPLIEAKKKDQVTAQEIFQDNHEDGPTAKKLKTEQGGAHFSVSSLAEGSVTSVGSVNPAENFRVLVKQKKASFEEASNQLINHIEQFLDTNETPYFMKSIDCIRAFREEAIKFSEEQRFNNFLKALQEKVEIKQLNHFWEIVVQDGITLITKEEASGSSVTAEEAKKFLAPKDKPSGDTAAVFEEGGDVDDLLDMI
The conditions noted are these: 50 uM, 231 sol, in vitro; for R value (DMSO/fragment) for probe 1 labeling: P12956_K351. In outline:
as §1

T3 sequence (P00367 54-558): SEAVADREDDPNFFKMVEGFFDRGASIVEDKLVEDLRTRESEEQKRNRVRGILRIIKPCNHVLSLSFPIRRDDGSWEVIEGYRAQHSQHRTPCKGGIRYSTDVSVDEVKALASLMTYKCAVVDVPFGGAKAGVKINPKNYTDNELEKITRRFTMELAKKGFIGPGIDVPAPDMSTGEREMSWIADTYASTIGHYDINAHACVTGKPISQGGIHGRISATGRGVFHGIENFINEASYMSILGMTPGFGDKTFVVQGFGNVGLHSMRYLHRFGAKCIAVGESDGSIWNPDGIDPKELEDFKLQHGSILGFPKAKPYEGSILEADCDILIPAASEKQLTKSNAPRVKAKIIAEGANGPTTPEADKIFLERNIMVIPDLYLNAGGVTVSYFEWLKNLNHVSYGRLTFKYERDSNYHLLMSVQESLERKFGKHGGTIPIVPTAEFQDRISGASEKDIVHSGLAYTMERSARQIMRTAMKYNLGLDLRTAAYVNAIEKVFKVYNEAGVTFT

Turning to `O=C(CCc1cn(-c2ccccc2)nc1-c1ccccc1)Oc1c(F)c(F)c(F)c(F)c1F` [fragment 19, Pentafluorophenyl 3-(1,3-diphenyl-1H-pyrazol-4-yl)propanoate], the “R value (DMSO/fragment) for probe 1 labeling” value (“R value (DMSO/fragment)” for short) in assay [1] came out at 0.9; in assay [2] it was 0.9; in assay [3], 1.0; in assay [4] it was 0.9; in assay [5], 1.0; in assay [6] it was 1.7.

Consider `O=C(Oc1c(F)c(F)c(F)c(F)c1F)C(c1ccccc1)c1ccccc1` [fragment 20, Pentafluorophenyl 2,2-diphenylacetate], for which the “R value (DMSO/fragment)” value in assay [1] was found to be 0.7; in assay [2], 0.8; in assay [3], 1.4; in assay [4], 1.0; in assay [5], 0.9; in assay [6], 2.3.

Take `O=C(Oc1c(F)c(F)c(F)c(F)c1F)c1cc(C(F)(F)F)cc(C(F)(F)F)c1` [fragment 21, Pentafluorophenyl 3,5-bis(trifluoromethyl)benzoate]: the “R value (DMSO/fragment)” value worked out at 0.8 in assay [1]; 0.8 in assay [2]; 1.2 in assay [3]; 1.0 in assay [4]; 0.8 in assay [5]; 1.4 in assay [6].

With `Cn1cc(CC(=O)Oc2c(F)c(F)c(F)c(F)c2F)c2ccccc21` [fragment 22, Pentafluorophenyl 2-(1-methyl-1H-indol-3-yl)acetate], the “R value (DMSO/fragment)” value in assay [1] is recorded as 0.7; in assay [2], 0.7; in assay [3], 2.5; in assay [4] it was 1.0; in assay [5] it was 0.9; in assay [6], 3.6.

On to `COc1cc(CCC(=O)Oc2c(F)c(F)c(F)c(F)c2F)cc(OC)c1OC` [fragment 23, Pentafluorophenyl 3-(3,4,5-trimethoxyphenyl)propanoate], for which the “R value (DMSO/fragment)” value in assay [1] is given as 2.1; in assay [2], 0.9; in assay [3] it was 1.8; in assay [4] it was 1.0; in assay [5] it was 1.1; in assay [6] it was 1.2.

For the molecule `O=C(Oc1c(F)c(F)c(F)c(F)c1F)C1CCN(C(=O)OCc2ccccc2)CC1` [fragment 24, 1-Benzyl 4-(pentafluorophenyl) piperidine-1,4-dicarboxylate], the “isoTOP-ABPP reactivity ratio at lysine P11413_K171” value in assay [1] was 0.9. Also, the “isoTOP-ABPP reactivity ratio at lysine Q9HC38_K305” value in assay [2] was determined as 1.5. Besides, in assay [3], the “isoTOP-ABPP reactivity ratio at lysine P00367_K480” value was 2.0. Besides, the “isoTOP-ABPP reactivity ratio at lysine Q14789_K103” value in assay [4] turned out to be 1.0. Further, in assay [5], the “isoTOP-ABPP reactivity ratio at lysine P62875_K67” value worked out at 0.9. Further, the “isoTOP-ABPP reactivity ratio at lysine P12956_K351” value in assay [6] is recorded as 1.3.

`O=C(CCc1cn(-c2ccccc2)nc1-c1ccccc1)Oc1ccc([N+](=O)[O-])cc1[N+](=O)[O-]` [fragment 29, 2,4-Dinitrophenyl 3-(1,3-diphenyl-1H-pyrazol-4-yl)propanoate]: the “isoTOP-ABPP reactivity ratio at lysine P11413_K171” value in assay [1] is 0.9. Moreover, the “isoTOP-ABPP reactivity ratio at lysine Q9HC38_K305” value in assay [2] is 0.9. For the same molecule, the “isoTOP-ABPP reactivity ratio at lysine P00367_K480” value in assay [3] amounted to 1.9. Further, the “isoTOP-ABPP reactivity ratio at lysine Q14789_K103” value in assay [4] came to 1.1. Further, the “isoTOP-ABPP reactivity ratio at lysine P12956_K351” value in assay [6] was found to be 3.2.

As to `Cn1cc(CC(=O)Oc2ccc([N+](=O)[O-])cc2[N+](=O)[O-])c2ccccc21` [fragment 32, 2,4-Dinitrophenyl 2-(1-methyl-1H-indol-3-yl)acetate], the “isoTOP-ABPP reactivity ratio at lysine P11413_K171” value in assay [1] was determined as 0.9. Further, the “isoTOP-ABPP reactivity ratio at lysine P00367_K480” value in assay [3] is 4.4. Also, the “isoTOP-ABPP reactivity ratio at lysine Q14789_K103” value in assay [4] worked out at 7.0. Besides, the “isoTOP-ABPP reactivity ratio at lysine P12956_K351” value in assay [6] turned out to be 13.4.
